# According to PubChem BioAssay AID1919006 (Molecular Pharmacology Branch, DTP, NCI, 2023):
# Values joined by “and” are separate entries in the source; they are usually repeats but may differ in a detail not shown here. Equal entries are not always repeated.
# System: 885512-296-R-J2-PDC complex spheroid growth, % test/control
# Assay: Anticancer human tumor 885512-296-R-J2-PDC patient-derived breast carcinoma cell line growth inhibition [AhR]
# Settings: for viability, T/C: stronger effect = lower value
# In short: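 Agents were dosed in half-log steps down from roughly clinical Cmax, or from 10 microM where Cmax was unknown, alone and with AhR antagonists. Read-out: percent test/control growth of tumor spheroids containing HUVEC and MSC stromal cells.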
# [1] = curve of first compound, second compound 0.1 µM
# [2] = curve of first compound, second compound 0.316 µM
# [3] = curve of first compound, second compound 1 µM
# [4] = curve of first compound, second compound 3.16 µM
# [5] = curve of first compound, second compound 10 µM
# [6] = second compound 0.1 µM, first compound 0.0316 µM
# [7] = second compound 0.1 µM, first compound 0.1 µM
# [8] = second compound 0.1 µM, first compound 0.316 µM
# [9] = second compound 0.1 µM, first compound 1 µM
# [10] = second compound 0.1 µM, first compound 3.16 µM
# [11] = second compound 0.1 µM, first compound 10 µM
# [12] = second compound 0.316 µM, first compound 0.0316 µM
# [13] = second compound 0.316 µM, first compound 0.1 µM
# [14] = second compound 0.316 µM, first compound 0.316 µM
# [15] = second compound 0.316 µM, first compound 1 µM
# [16] = second compound 0.316 µM, first compound 3.16 µM
# [17] = second compound 0.316 µM, first compound 10 µM
# [18] = second compound 1 µM, first compound 0.0316 µM
# [19] = second compound 1 µM, first compound 0.1 µM
# [20] = second compound 1 µM, first compound 0.316 µM
# [21] = second compound 1 µM, first compound 1 µM
# [22] = second compound 1 µM, first compound 3.16 µM
# [23] = second compound 1 µM, first compound 10 µM
# [24] = second compound 3.16 µM, first compound 0.0316 µM
# [25] = second compound 3.16 µM, first compound 0.1 µM
# [26] = second compound 3.16 µM, first compound 0.316 µM
# [27] = second compound 3.16 µM, first compound 1 µM
# [28] = second compound 3.16 µM, first compound 3.16 µM
# [29] = second compound 3.16 µM, first compound 10 µM
# [30] = second compound 10 µM, first compound 0.0316 µM
# [31] = second compound 10 µM, first compound 0.1 µM
# [32] = second compound 10 µM, first compound 0.316 µM
# [33] = second compound 10 µM, first compound 1 µM
# [34] = second compound 10 µM, first compound 3.16 µM
# [35] = second compound 10 µM, first compound 10 µM
# 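Note: spheroids exposed to compounds for seven days.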
structure (smiles),measurement,setting,value
CC(C)CC(NC(=O)C(Cc1ccccc1)NC(=O)c1cnccn1)B(O)O (centres undefined),"viability, T/C",compound 0.000949 µM,106% and 93.4% and 96.8%
same,"viability, T/C",compound 0.003 µM,94.4% and 94.7% and 83.5%
same,"viability, T/C",compound 0.00949 µM,19.2% and 26.2% and 9.11%
same,"viability, T/C",compound 0.03 µM,1.45% and 1.42% and 0.86%
same,"viability, T/C",compound 0.0949 µM,0.43% and 0.3% and 0.26%
same,"viability, T/C",compound 0.3 µM,0.27% and 0.21% and 0.15%
same,IC50,curve of compound,5.92 nM and 6.34 nM and 5.04 nM
COc1cc(C2c3cc4c(cc3C(OC3OC5COC(C)OC5C(O)C3O)C3COC(=O)C23)OCO4)cc(OC)c1O (centres undefined) + CC(CO)NC(=O)c1cc(-c2ccc(Cl)cc2)nn(-c2cnn(C)c2)c1=O,IC50,[1],771 nM
same,IC50,[2],694 nM
same,IC50,[3],671 nM
same,IC50,[4],490 nM
same,IC50,[5],310 nM
same,"viability, T/C",[6],102%
same,"viability, T/C",[7],106%
same,"viability, T/C",[8],85.9%
same,"viability, T/C",[9],39.8%
same,"viability, T/C",[10],10.2%
same,"viability, T/C",[11],7.1%
same,"viability, T/C",[12],96.5%
same,"viability, T/C",[13],89.2%
same,"viability, T/C",[14],74.8%
same,"viability, T/C",[15],39.9%
same,"viability, T/C",[16],9.03%
same,"viability, T/C",[17],7.53%
same,"viability, T/C",[18],101%
same,"viability, T/C",[19],103%
same,"viability, T/C",[20],81.6%
same,"viability, T/C",[21],33.3%
same,"viability, T/C",[22],10.9%
same,"viability, T/C",[23],8.44%
same,"viability, T/C",[24],110%
same,"viability, T/C",[25],97.6%
same,"viability, T/C",[26],68.4%
same,"viability, T/C",[27],20.8%
same,"viability, T/C",[28],12.2%
same,"viability, T/C",[29],7.27%
same,"viability, T/C",[30],91.5%
same,"viability, T/C",[31],89.1%
same,"viability, T/C",[32],48.7%
same,"viability, T/C",[33],17.7%
same,"viability, T/C",[34],13.8%
same,"viability, T/C",[35],9.69%
Cn1ncnc1C1c2n[nH]c(=O)c3cc(F)cc(c23)NC1c1ccc(F)cc1 (centres undefined),"viability, T/C",compound 0.000316 µM,96.9% and 103% and 101%
same,"viability, T/C",compound 0.001 µM,88.9% and 93.1% and 107%
same,"viability, T/C",compound 0.00316 µM,90.6% and 91.2% and 108%
same,"viability, T/C",compound 0.01 µM,88.6% and 93.7% and 89%
same,"viability, T/C",compound 0.0316 µM,79.9% and 75.4% and 87.3%
same,"viability, T/C",compound 0.1 µM,58% and 57% and 53.9%
same,IC50,curve of compound,> 100 nM
CC(C)CC(NC(=O)C(Cc1ccccc1)NC(=O)c1cnccn1)B(O)O (centres undefined) + Cc1cncc(-c2nc(NCCc3c[nH]c4ccccc34)c3ncn(C(C)C)c3n2)c1,IC50,[1],6.75 nM
same,IC50,[2],6.48 nM
same,IC50,[3],5.6 nM
same,IC50,[4],3.63 nM
same,IC50,[5],< 0.949 nM
same,"viability, T/C","second compound 0.1 µM, first compound 0.000949 µM",112%
same,"viability, T/C","second compound 0.1 µM, first compound 0.003 µM",114%
same,"viability, T/C","second compound 0.1 µM, first compound 0.00949 µM",23.6%
same,"viability, T/C","second compound 0.1 µM, first compound 0.03 µM",1.75%
same,"viability, T/C","second compound 0.1 µM, first compound 0.0949 µM",0.64%
same,"viability, T/C","second compound 0.1 µM, first compound 0.3 µM",0.17%
same,"viability, T/C","second compound 0.316 µM, first compound 0.000949 µM",103%
same,"viability, T/C","second compound 0.316 µM, first compound 0.003 µM",99%
same,"viability, T/C","second compound 0.316 µM, first compound 0.00949 µM",25.7%
same,"viability, T/C","second compound 0.316 µM, first compound 0.03 µM",1.08%
same,"viability, T/C","second compound 0.316 µM, first compound 0.0949 µM",0.32%
same,"viability, T/C","second compound 0.316 µM, first compound 0.3 µM",0.14%
same,"viability, T/C","second compound 1 µM, first compound 0.000949 µM",79.2%
same,"viability, T/C","second compound 1 µM, first compound 0.003 µM",87.7%
same,"viability, T/C","second compound 1 µM, first compound 0.00949 µM",21.8%
same,"viability, T/C","second compound 1 µM, first compound 0.03 µM",0.9%
same,"viability, T/C","second compound 1 µM, first compound 0.0949 µM",0.08%
same,"viability, T/C","second compound 1 µM, first compound 0.3 µM",0.13%
same,"viability, T/C","second compound 3.16 µM, first compound 0.000949 µM",52.5%
same,"viability, T/C","second compound 3.16 µM, first compound 0.003 µM",61%
same,"viability, T/C","second compound 3.16 µM, first compound 0.00949 µM",16.3%
same,"viability, T/C","second compound 3.16 µM, first compound 0.03 µM",0.59%
same,"viability, T/C","second compound 3.16 µM, first compound 0.0949 µM",0.07%
same,"viability, T/C","second compound 3.16 µM, first compound 0.3 µM",0.16%
same,"viability, T/C","second compound 10 µM, first compound 0.000949 µM",16.7%
same,"viability, T/C","second compound 10 µM, first compound 0.003 µM",16.9%
same,"viability, T/C","second compound 10 µM, first compound 0.00949 µM",1.8%
same,"viability, T/C","second compound 10 µM, first compound 0.03 µM",0.43%
same,"viability, T/C","second compound 10 µM, first compound 0.0949 µM",0.16%
same,"viability, T/C","second compound 10 µM, first compound 0.3 µM",0.22%
O=C(C=Cc1cccc(S(=O)(=O)Nc2ccccc2)c1)NO + Cc1ccccc1N=Nc1ccc(NC(=O)c2ccnn2C)c(C)c1,IC50,[1],871 nM
same,IC50,[2],1160 nM
same,IC50,[3],1090 nM
same,IC50,[4],773 nM
same,IC50,[5],33.8 nM
same,"viability, T/C",[6],84.5%
same,"viability, T/C",[7],82.9%
same,"viability, T/C",[8],67.6%
same,"viability, T/C",[9],45%
same,"viability, T/C",[10],27.8%
same,"viability, T/C",[11],7.04%
same,"viability, T/C",[12],86.4%
same,"viability, T/C",[13],85.8%
same,"viability, T/C",[14],80.8%
same,"viability, T/C",[15],47.8%
same,"viability, T/C",[16],30.6%
same,"viability, T/C",[17],7.44%
same,"viability, T/C",[18],88.2%
same,"viability, T/C",[19],85.5%
same,"viability, T/C",[20],68.9%
same,"viability, T/C",[21],51.4%
same,"viability, T/C",[22],29.8%
same,"viability, T/C",[23],7.53%
same,"viability, T/C",[24],73.8%
same,"viability, T/C",[25],73%
same,"viability, T/C",[26],67.5%
same,"viability, T/C",[27],40.6%
same,"viability, T/C",[28],28.2%
same,"viability, T/C",[29],6.85%
same,"viability, T/C",[30],51%
same,"viability, T/C",[31],46.8%
same,"viability, T/C",[32],41.9%
same,"viability, T/C",[33],32.5%
same,"viability, T/C",[34],27.6%
same,"viability, T/C",[35],7.31%
Nc1ccn(C2OC(CO)C(O)C2(F)F)c(=O)n1 (centres undefined) + Cc1ccccc1N=Nc1ccc(NC(=O)c2ccnn2C)c(C)c1,IC50,[1],< 31.6 nM
same,IC50,[2],< 31.6 nM
same,IC50,[3],< 31.6 nM
same,IC50,[4],< 31.6 nM
same,IC50,[5],< 31.6 nM
same,"viability, T/C",[6],3.22%
same,"viability, T/C",[7],3.21%
same,"viability, T/C",[8],3.37%
same,"viability, T/C",[9],3.91%
same,"viability, T/C",[10],5.19%
same,"viability, T/C",[11],4.82%
same,"viability, T/C",[12],3.01%
same,"viability, T/C",[13],3.13%
same,"viability, T/C",[14],3.98%
same,"viability, T/C",[15],4.91%
same,"viability, T/C",[16],7.26%
same,"viability, T/C",[17],4.9%
same,"viability, T/C",[18],3.39%
same,"viability, T/C",[19],3.19%
same,"viability, T/C",[20],5.43%
same,"viability, T/C",[21],5.88%
same,"viability, T/C",[22],5.6%
same,"viability, T/C",[23],6.93%
same,"viability, T/C",[24],3.31%
same,"viability, T/C",[25],3.09%
same,"viability, T/C",[26],5.1%
same,"viability, T/C",[27],5.57%
same,"viability, T/C",[28],4.88%
same,"viability, T/C",[29],5.93%
same,"viability, T/C",[30],3.17%
same,"viability, T/C",[31],3.46%
same,"viability, T/C",[32],4.17%
same,"viability, T/C",[33],4.62%
same,"viability, T/C",[34],5.33%
same,"viability, T/C",[35],5.12%
NS(=O)(=O)OCC1CC(n2ccc3c(NC4CCc5ccccc54)ncnc32)CC1O (centres undefined) + CC(CO)NC(=O)c1cc(-c2ccc(Cl)cc2)nn(-c2cnn(C)c2)c1=O,IC50,[1],97 nM
same,IC50,[2],98.9 nM
same,IC50,[3],101 nM
same,IC50,[4],89.1 nM
same,IC50,[5],58.7 nM
same,"viability, T/C",[6],111%
same,"viability, T/C",[7],48.4%
same,"viability, T/C",[8],15%
same,"viability, T/C",[9],7.66%
same,"viability, T/C",[10],6.85%
same,"viability, T/C",[11],5.35%
same,"viability, T/C",[12],97.6%
same,"viability, T/C",[13],49.5%
same,"viability, T/C",[14],15.9%
same,"viability, T/C",[15],7.66%
same,"viability, T/C",[16],5.71%
same,"viability, T/C",[17],6.67%
same,"viability, T/C",[18],106%
same,"viability, T/C",[19],50.3%
same,"viability, T/C",[20],17.3%
same,"viability, T/C",[21],7.69%
same,"viability, T/C",[22],7.18%
same,"viability, T/C",[23],7.68%
same,"viability, T/C",[24],84.1%
same,"viability, T/C",[25],46.1%
same,"viability, T/C",[26],16.7%
same,"viability, T/C",[27],7.54%
same,"viability, T/C",[28],7.16%
same,"viability, T/C",[29],7.08%
same,"viability, T/C",[30],65.6%
same,"viability, T/C",[31],36.1%
same,"viability, T/C",[32],19.3%
same,"viability, T/C",[33],8.18%
same,"viability, T/C",[34],6.74%
same,"viability, T/C",[35],6.33%
